Key:
Candida albicans [1] = test: microbe, parasite or virus in culture; assay type: functional; conditions: ATCC 44859, 48 h
Description: Antifungal activity against Candida albicans ATCC 44859 after 48 hrs by modified standard CSLI M27-A2 method

Candida tropicalis [2] = test: Fungicidal activity against Candida tropicalis 156 after 48 hrs by modified standard CSLI M27-A2 method; assay type: functional; conditions: Candida tropicalis, 156, 48 h
Pseudomonas aeruginosa [3] = test: microbe, parasite or virus in culture; assay type: functional; conditions: CCM 1961, 72 h
Description: Antibacterial activity against Pseudomonas aeruginosa CCM 1961 after 72 hrs by microdilution broth method

Trichosporon asahii [4] = test: microbe, parasite or virus in culture; assay type: functional; conditions: Trichosporon asahii, 1188, 48 h
Description: Antifungal activity against Trichosporon asahii 1188 after 48 hrs by modified standard CSLI M27-A2 method

[5] = Cytotoxicity against CHOK1 cells after 24 hrs by MTT assay; assay type: ADME, cell-based; conditions: Cricetulus griseus, CHO-K1, 24 h
Enterococcus sp. [6] = test: microbe, parasite or virus in culture; assay type: functional; conditions: J 14365/08, 24 h
Description: Antibacterial activity against Enterococcus sp. J 14365/08 after 24 hrs by microdilution broth method

Trichosporon asahii [7] = test: Fungicidal activity against Trichosporon asahii 1188 after 48 hrs by modified standard CSLI M27-A2 method; assay type: functional; conditions: Trichosporon asahii, 1188, 48 h
[8] = system: Staphylococcus epidermidis; test: microbe, parasite or virus in culture; assay type: functional; conditions: H 6966/08, 48 h
Description: Antibacterial activity against Staphylococcus epidermidis H 6966/08 after 48 hrs by microdilution broth method

Trichosporon asahii [9] = test: microbe, parasite or virus in culture; assay type: functional; conditions: Trichosporon asahii, 1188, 24 h
Description: Antifungal activity against Trichosporon asahii 1188 after 24 hrs by modified standard CSLI M27-A2 method

Staphylococcus aureus [10] = test: microbe, parasite or virus in culture; assay type: functional; conditions: CCM 4516/08, 24 h
Description: Antibacterial activity against Staphylococcus aureus CCM 4516/08 after 24 hrs by microdilution broth method

[11] = system: Staphylococcus epidermidis; test: microbe, parasite or virus in culture; assay type: functional; conditions: H 6966/08, 24 h
Description: Antibacterial activity against Staphylococcus epidermidis H 6966/08 after 24 hrs by microdilution broth method

Escherichia coli [12] = test: Bactericidal activity against Escherichia coli CCM 4517 after 48 hrs by microdilution broth method; assay type: functional; conditions: CCM 4517, 48 h, read-out: MBC>99.9
Staphylococcus aureus [13] = test: Bactericidal activity against Staphylococcus aureus CCM 4516/08 after 48 hrs by microdilution broth method; assay type: functional; conditions: CCM 4516/08, 48 h, read-out: MBC>99.9
Lichtheimia corymbifera [14] = test: microbe, parasite or virus in culture; assay type: functional; conditions: Lichtheimia corymbifera, 272, 48 h
Description: Antifungal activity against Absidia corymbifera 272 after 48 hrs by modified standard CSLI M27-A2 method

Candida tropicalis [15] = test: microbe, parasite or virus in culture; assay type: functional; conditions: Candida tropicalis, 156, 48 h
Description: Antifungal activity against Candida tropicalis 156 after 48 hrs by modified standard CSLI M27-A2 method

[16] = system: Staphylococcus epidermidis; test: Bactericidal activity against Staphylococcus epidermidis H 6966/08 after 48 hrs by microdilution broth method; assay type: functional; conditions: H 6966/08, 48 h, read-out: MBC>99.9
Nakaseomyces glabratus [17] = test: Antifungal activity against Candida glabrata 20/I after 48 hrs by modified standard CSLI M27-A2 method; assay type: functional
Klebsiella pneumoniae [18] = test: microbe, parasite or virus in culture; assay type: functional; conditions: D 11750/08, 48 h
Description: Antibacterial activity against Klebsiella pneumoniae D 11750/08 after 48 hrs by microdilution broth method

[19] = system: Trichophyton mentagrophytes; test: microbe, parasite or virus in culture; assay type: functional; conditions: Trichophyton mentagrophytes, 445, 120 h
Description: Antifungal activity against Trichophyton mentagrophytes 445 after 120 hrs by modified standard CSLI M27-A2 method

[20] = system: Trichophyton mentagrophytes; test: Fungicidal activity against Trichophyton mentagrophytes 445 after 120 hrs by modified standard CSLI M27-A2 method; assay type: functional; conditions: Trichophyton mentagrophytes, 445, 120 h
[21] = system: Trichophyton mentagrophytes; test: microbe, parasite or virus in culture; assay type: functional; conditions: Trichophyton mentagrophytes, 445, 72 h
Description: Antifungal activity against Trichophyton mentagrophytes 445 after 72 hrs by modified standard CSLI M27-A2 method

Lichtheimia corymbifera [22] = test: Fungicidal activity against Absidia corymbifera 272 after 48 hrs by modified standard CSLI M27-A2 method; assay type: functional; conditions: Lichtheimia corymbifera, 272, 48 h
Aspergillus fumigatus [23] = test: microbe, parasite or virus in culture; assay type: functional; conditions: Aspergillus fumigatus, 231, 48 h
Description: Antifungal activity against Aspergillus fumigatus 231 after 48 hrs by modified standard CSLI M27-A2 method

Pichia kudriavzevii [24] = test: Antifungal activity against Candida krusei E28 after 24 hrs by modified standard CSLI M27-A2 method; assay type: functional; conditions: E28, 24 h
Staphylococcus aureus [25] = test: microbe, parasite or virus in culture; assay type: functional; conditions: CCM 4516/08, 48 h
Description: Antibacterial activity against Staphylococcus aureus CCM 4516/08 after 48 hrs by microdilution broth method

Nakaseomyces glabratus [26] = test: Fungicidal activity against Candida glabrata 20/I after 48 hrs by modified standard CSLI M27-A2 method; assay type: functional
Pseudomonas aeruginosa [27] = test: microbe, parasite or virus in culture; assay type: functional; conditions: CCM 1961, 120 h
Description: Antibacterial activity against Pseudomonas aeruginosa CCM 1961 after 120 hrs by microdilution broth method

Pseudomonas aeruginosa [28] = test: Bactericidal activity against Pseudomonas aeruginosa CCM 1961 after 120 hrs by microdilution broth method; assay type: functional; conditions: CCM 1961, 120 h, read-out: MBC>99.9
Klebsiella pneumoniae [29] = test: Bactericidal activity against Klebsiella pneumoniae J 14368/08 after 48 hrs by microdilution broth method; assay type: functional; conditions: J 14368/08, 48 h, read-out: MBC>99.9
Klebsiella pneumoniae [30] = test: Bactericidal activity against Klebsiella pneumoniae D 11750/08 after 24 hrs by microdilution broth method; assay type: functional; conditions: D 11750/08, 24 h, read-out: MBC>99.9
Klebsiella pneumoniae [31] = test: microbe, parasite or virus in culture; assay type: functional; conditions: D 11750/08, 24 h
Description: Antibacterial activity against Klebsiella pneumoniae D 11750/08 after 24 hrs by microdilution broth method

Pichia kudriavzevii [32] = test: Antifungal activity against Candida krusei E28 after 48 hrs by modified standard CSLI M27-A2 method; assay type: functional; conditions: E28, 48 h
Klebsiella pneumoniae [33] = test: microbe, parasite or virus in culture; assay type: functional; conditions: J 14368/08, 48 h
Description: Antibacterial activity against Klebsiella pneumoniae J 14368/08 after 48 hrs by microdilution broth method

Candida tropicalis [34] = test: microbe, parasite or virus in culture; assay type: functional; conditions: Candida tropicalis, 156, 24 h
Description: Antifungal activity against Candida tropicalis 156 after 24 hrs by modified standard CSLI M27-A2 method

Nakaseomyces glabratus [35] = test: Antifungal activity against Candida glabrata 20/I after 24 hrs by modified standard CSLI M27-A2 method; assay type: functional
Candida albicans [36] = test: Fungicidal activity against Candida albicans ATCC 44859 after 48 hrs by modified standard CSLI M27-A2 method; assay type: functional; conditions: ATCC 44859, 48 h
Escherichia coli [37] = test: microbe, parasite or virus in culture; assay type: functional; conditions: CCM 4517, 24 h
Description: Antibacterial activity against Escherichia coli CCM 4517 after 24 hrs by microdilution broth method

Aspergillus fumigatus [38] = test: microbe, parasite or virus in culture; assay type: functional; conditions: Aspergillus fumigatus, 231, 24 h
Description: Antifungal activity against Aspergillus fumigatus 231 after 24 hrs by modified standard CSLI M27-A2 method

Staphylococcus aureus [39] = test: microbe, parasite or virus in culture; assay type: functional; conditions: H 5996/08, 24 h
Description: Antibacterial activity against Staphylococcus aureus H 5996/08 after 24 hrs by microdilution broth method

Klebsiella pneumoniae [40] = test: microbe, parasite or virus in culture; assay type: functional; conditions: J 14368/08, 24 h
Description: Antibacterial activity against Klebsiella pneumoniae J 14368/08 after 24 hrs by microdilution broth method

Enterococcus sp. [41] = test: Bactericidal activity against Enterococcus sp. J 14365/08 after 48 hrs by microdilution broth method; assay type: functional; conditions: J 14365/08, 48 h, read-out: MBC>99.9
Candida albicans [42] = test: microbe, parasite or virus in culture; assay type: functional; conditions: ATCC 44859, 24 h
Description: Antifungal activity against Candida albicans ATCC 44859 after 24 hrs by modified standard CSLI M27-A2 method

Lichtheimia corymbifera [43] = test: microbe, parasite or virus in culture; assay type: functional; conditions: Lichtheimia corymbifera, 272, 24 h
Description: Antifungal activity against Absidia corymbifera 272 after 24 hrs by modified standard CSLI M27-A2 method

Escherichia coli [44] = test: microbe, parasite or virus in culture; assay type: functional; conditions: CCM 4517, 48 h
Description: Antibacterial activity against Escherichia coli CCM 4517 after 48 hrs by microdilution broth method

Staphylococcus aureus [45] = test: Bactericidal activity against Staphylococcus aureus H 5996/08 after 48 hrs by microdilution broth method; assay type: functional; conditions: H 5996/08, 48 h, read-out: MBC>99.9
Staphylococcus aureus [46] = test: microbe, parasite or virus in culture; assay type: functional; conditions: H 5996/08, 48 h
Description: Antibacterial activity against Staphylococcus aureus H 5996/08 after 48 hrs by microdilution broth method

Aspergillus fumigatus [47] = test: Fungicidal activity against Aspergillus fumigatus 231 after 48 hrs by modified standard CSLI M27-A2 method; assay type: functional; conditions: Aspergillus fumigatus, 231, 48 h
Enterococcus sp. [48] = test: microbe, parasite or virus in culture; assay type: functional; conditions: J 14365/08, 48 h
Description: Antibacterial activity against Enterococcus sp. J 14365/08 after 48 hrs by microdilution broth method

Pichia kudriavzevii [49] = test: Fungicidal activity against Candida krusei E28 after 48 hrs by modified standard CSLI M27-A2 method; assay type: functional; conditions: E28, 48 h

CCCCCCCCCCCCCC[n+]1ccccc1
7.81 µM: MIC (Candida albicans [1]) | MBC (Escherichia coli [12]) | MBC (Klebsiella pneumoniae [29]) | MIC95 (Klebsiella pneumoniae [33]) | MIC95 (Escherichia coli [37]) | MIC95 (Klebsiella pneumoniae [40]) | MIC (Candida albicans [42]) | MIC95 (Escherichia coli [44])
250 µM: MFC (Candida tropicalis [2]) | MFC (Trichosporon asahii [7]) | MFC (Lichtheimia corymbifera [22]) | MFC (Nakaseomyces glabratus [26]) | MFC (Aspergillus fumigatus [47]) | MFC (Pichia kudriavzevii [49])
1.95 µM: MIC95 (Enterococcus sp. [6]) | MIC (Candida tropicalis [15]) | MIC (Nakaseomyces glabratus [17]) | MIC (Candida tropicalis [34]) | MIC (Nakaseomyces glabratus [35]) | MIC95 (Enterococcus sp. [48])
31.2 µM: MIC (Trichosporon asahii [4]) | MIC (Trichosporon asahii [9]) | MFC [20] | MIC (Aspergillus fumigatus [23])
0.49 µM: MIC95 [8] | MIC95 [11] | MBC [16]
25 µM: IC50 [5]
0.98 µM: MIC95 (Staphylococcus aureus [10]) | MIC (Pichia kudriavzevii [24]) | MIC95 (Staphylococcus aureus [25]) | MIC (Pichia kudriavzevii [32])
3.91 µM: MBC (Staphylococcus aureus [13]) | MIC95 (Staphylococcus aureus [39]) | MBC (Staphylococcus aureus [45]) | MIC95 (Staphylococcus aureus [46])
125 µM: MIC95 (Pseudomonas aeruginosa [3]) | MIC (Lichtheimia corymbifera [14]) | MIC95 (Pseudomonas aeruginosa [27]) | MBC (Pseudomonas aeruginosa [28]) | MFC (Candida albicans [36]) | MIC (Lichtheimia corymbifera [43])
15.6 µM: MIC95 (Klebsiella pneumoniae [18]) | MIC [19] | MIC [21] | MBC (Klebsiella pneumoniae [30]) | MIC95 (Klebsiella pneumoniae [31]) | MIC (Aspergillus fumigatus [38]) | MBC (Enterococcus sp. [41])

CCCCCCCCCCCC[N+](C)(C)Cc1ccccc1
7.81 µM: MIC (Lichtheimia corymbifera [14]) | MFC (Lichtheimia corymbifera [22]) | MBC (Pseudomonas aeruginosa [28]) | MIC (Lichtheimia corymbifera [43])
0.98 µM: MFC (Candida tropicalis [2]) | MIC [19] | MIC [21] | MBC (Klebsiella pneumoniae [29]) | MIC95 (Klebsiella pneumoniae [33]) | MFC (Candida albicans [36]) | MIC (Aspergillus fumigatus [38]) | MIC95 (Klebsiella pneumoniae [40]) | MBC (Enterococcus sp. [41]) | MBC (Staphylococcus aureus [45]) | MIC95 (Enterococcus sp. [48])
0.49 µM: MIC (Candida albicans [1]) | MIC95 (Enterococcus sp. [6]) | MIC95 [8] | MIC (Trichosporon asahii [9]) | MIC95 (Staphylococcus aureus [10]) | MIC95 [11] | MIC (Candida tropicalis [15]) | MBC [16] | MIC (Nakaseomyces glabratus [17]) | MIC95 (Klebsiella pneumoniae [18]) | MIC (Pichia kudriavzevii [24]) | MFC (Nakaseomyces glabratus [26]) | MBC (Klebsiella pneumoniae [30]) | MIC95 (Klebsiella pneumoniae [31]) | MIC (Pichia kudriavzevii [32]) | MIC (Candida tropicalis [34]) | MIC (Nakaseomyces glabratus [35]) | MIC95 (Escherichia coli [37]) | MIC95 (Staphylococcus aureus [39]) | MIC (Candida albicans [42]) | MIC95 (Staphylococcus aureus [46]) | MFC (Pichia kudriavzevii [49])
29 µM: IC50 [5]
1.95 µM: MIC (Trichosporon asahii [4]) | MFC (Trichosporon asahii [7]) | MBC (Escherichia coli [12]) | MBC (Staphylococcus aureus [13]) | MFC [20] | MIC95 (Staphylococcus aureus [25]) | MIC95 (Escherichia coli [44])
3.91 µM: MIC95 (Pseudomonas aeruginosa [3]) | MIC (Aspergillus fumigatus [23]) | MIC95 (Pseudomonas aeruginosa [27]) | MFC (Aspergillus fumigatus [47])

CCCCCCCCCCCCCCCC[N+](C)(C)Cc1ccccc1
15.6 µM: MIC95 (Pseudomonas aeruginosa [3])
7.81 µM: MIC (Candida albicans [1]) | MFC (Candida tropicalis [2]) | MIC (Trichosporon asahii [4]) | MIC (Trichosporon asahii [9]) | MBC (Escherichia coli [12]) | MIC (Lichtheimia corymbifera [14]) | MIC (Candida tropicalis [15]) | MIC95 (Klebsiella pneumoniae [18]) | MIC [19] | MIC [21] | MIC (Aspergillus fumigatus [23]) | MBC (Klebsiella pneumoniae [29]) | MBC (Klebsiella pneumoniae [30]) | MIC95 (Klebsiella pneumoniae [31]) | MIC95 (Klebsiella pneumoniae [33]) | MFC (Candida albicans [36]) | MIC95 (Escherichia coli [37]) | MIC (Aspergillus fumigatus [38]) | MIC95 (Klebsiella pneumoniae [40]) | MIC (Lichtheimia corymbifera [43]) | MIC95 (Escherichia coli [44])
31.2 µM: MIC95 (Pseudomonas aeruginosa [27])
0.49 µM: MIC95 [8] | MIC95 [11]
125 µM: MBC (Pseudomonas aeruginosa [28])
0.98 µM: MIC95 (Staphylococcus aureus [10]) | MIC95 (Staphylococcus aureus [25])
1.95 µM: MIC95 (Enterococcus sp. [6]) | MIC (Pichia kudriavzevii [24]) | MIC (Pichia kudriavzevii [32]) | MIC (Nakaseomyces glabratus [35]) | MIC95 (Staphylococcus aureus [39]) | MIC95 (Staphylococcus aureus [46]) | MIC95 (Enterococcus sp. [48]) | MFC (Pichia kudriavzevii [49])
15 µM: IC50 [5]
62.5 µM: MFC (Trichosporon asahii [7]) | MFC [20] | MFC (Lichtheimia corymbifera [22]) | MFC (Nakaseomyces glabratus [26]) | MFC (Aspergillus fumigatus [47])
3.91 µM: MBC (Staphylococcus aureus [13]) | MBC [16] | MIC (Nakaseomyces glabratus [17]) | MIC (Candida tropicalis [34]) | MBC (Enterococcus sp. [41]) | MIC (Candida albicans [42]) | MBC (Staphylococcus aureus [45])

— ChEMBL document CHEMBL3352489, “6-Hydroxyquinolinium salts differing in the length of alkyl side-chain: synthesis and antimicrobial activity” (Bioorg Med Chem Lett, 2014)
